Laboratory results reported in paper PMC4515504 (Evidence-based Complementary and Alternative Medicine : eCAM, 2015).

Tested on: T1, alpha-glucosidase (from Bacillus stearothermophilus)
T1 construct: gene maltase
Assay: pNPG hydrolysis, Lineweaver-Burk plot
Type: biochemical, Geobacillus stearothermophilus
Conditions: control without extract; pNPG 0.08-5 mg/mL, 37°C, 20 min; unreliable: Km extrapolated above the tested substrate range
Description: pNPG hydrolysis, Lineweaver-Burk plot on alpha-glucosidase (from Bacillus stearothermophilus)

Alpha-glucosidase / K m: 17.39 mg/mL
Compound: O=[N+]([O-])c1ccc(O[C@H]2O[C@H](CO)[C@@H](O)[C@H](O)[C@H]2O)cc1 [p-nitrophenyl glucopyranoside]
